Data reported in patent US20200323790A1, “METHOD FOR TREATMENT OF ACUTE LUNG INJURY BY USE OF KIRENOL” (CHUNG SHAN MEDICAL UNIVERSITY, priority 2019, published 2020).

What was measured:
BALB/c mice [1] = test: Lipid peroxidation (malondialdehyde, MDA) in lung of LPS-induced ALI mice; format: in vivo; conditions: kirenol 3, 10, 30 mg/kg IP; vs LPS stimulated group; FIG. 5
Description: (§1) BALB/c mice (5-7 weeks old) are obtained from the National Laboratory Animal Center (NLAC) and maintained in the laboratory for a week in order to adapt to the environment. Then experiments are carried out as follows. The mice are divided into three groups. The control group: mice in the group are injected with normal saline by intratracheal injection (IT). The LPS stimulated group: mice in the group are treated with a 50 μL solution containing 100 μg of lipopolysaccharide (LPS) by IT for inducing ALI. The kirenol group: mice are given an intraperitoneal injection (IP) of 3 mg/kg, 10 mg/kg, and 30 mg/kg of kirenol respectively. After 30 minutes, each mouse is treated with 100 μg of LPS by IT. The dexamethasone group: mice are dosed with 1 mg/kg of dexamethasone by IP and then treated with 100 μg of LPS by IT after 30 minutes.
(§2) The mice in the respective group are killed 6 hours after LPS administration. […]
For evaluation of lung tissue damage, the amount of malondialdehyde (MDA), the final product of lipid peroxidation in lung, is measured. […] Lastly absorbance of the mixed solution is measured at 532 nm.

BALB/c mice [2] = test: Protein content in BALF (Bradford assay) in LPS-induced ALI mice; format: in vivo; conditions: kirenol 3, 10, 30 mg/kg IP, FIG. 3
Description: as §1, §2
(§3) Polymorphonuclear leucocytes and protein in the capillary flow into the alveoli while alveolar capillary barrier being damaged. Thus the integrity of alveolar capillary barrier can be evaluated by analysis of the content of polymorphonuclear leucocytes and protein in the BALF. […]

BALB/c mice [3] = test: Histopathology (H&E) of lung in LPS-induced ALI mice; format: in vivo; conditions: LPS 100 μg IT; kirenol 3, 10, 30 mg/kg IP or dexamethasone 1 mg/kg IP 30 min before LPS; 6 h after LPS; FIG. 1
Description: as §1
(§4) The mice in the respective group are killed 6 hours after LPS administration. Then use bronchoalveolar lavage (BAL) to get (Bronchoalveolar lavage fluid (BALF). And perform differential blood count, detect neutrophil activity and measure protein content in BALF. The lung tissue of the mice is used in histopathology examination, analysis of pulmonary edema, lipid peroxidation assay, and antioxidant activity analysis.
Kirenol used is obtained from ChemFaces (Catalog No. CFN98867) dissolved in Dimethyl sulfoxide (DMSO). […]

BALB/c mice [4] = test: Lung tissue wet/dry ratio (lung edema) in LPS-induced ALI mice; format: in vivo; conditions: kirenol 3, 10, 30 mg/kg IP, FIG. 2
Description: as §1, §4
The mice are killed and lung tissue is obtained. […] Thereby the wet/dry ratio of the lung tissue is calculated by dividing the wet weight by the dry weight.

[5] = tested on: glutathione peroxidase (GSH); test: Antioxidant enzyme activity in lung tissue: glutathione peroxidase; format: in vivo, mice; conditions: kirenol 3, 10, 30 mg/kg IP; vs LPS stimulated group; FIG. 8
Description: as §1, §4
(§5) During acute lung injury, the increasing pulmonary oxidative stress easily leads to lung tissue damage. […]

[6] = tested on: superoxide dismutase (SOD); test: Antioxidant enzyme activity in lung tissue: SOD; format: in vivo, mice; conditions: kirenol 3, 10, 30 mg/kg IP; vs LPS stimulated group; FIG. 6
Description: as §1, §4, §5

BALB/c mice [7] = test: Neutrophils in BALF (Giemsa stain) in LPS-induced ALI mice; format: in vivo; conditions: kirenol 3, 10, 30 mg/kg IP; vs LPS stimulated group; FIG. 4
Description: as §1, §2, §3

catalase (CAT) = test: Antioxidant enzyme activity in lung tissue: CAT; format: in vivo, mice; conditions: kirenol 3, 10, 30 mg/kg IP; vs LPS stimulated group; FIG. 7
Description: as §1, §4, §5

Structure (SMILES): C[C@@]1(CO)C[C@@H](O)C[C@@]2(C)[C@@H]3CC[C@](C)([C@@H](O)CO)C=C3CC[C@H]12 [Kirenol]
- lipid peroxidation in lung (MDA) (BALB/c mice [1]): prevents lipid peroxidation caused by LPS in a dose dependent manner
- integrity of alveolar capillary barrier (BALB/c mice [2]): prevents damage to the integrity of alveolar capillary barrier caused by LPS in a dose dependent way
- protein content in BALF (BALB/c mice [2]; vs LPS stimulated group): lowered
- hyaline membrane formation in lung (BALB/c mice [3]): reduces hyaline membrane formation in lung and immune cell infiltration induced by LPS in a dose dependent manner
- immune cell infiltration in lung (BALB/c mice [3]): reduces hyaline membrane formation in lung and immune cell infiltration induced by LPS in a dose dependent manner
- lung edema induced by LPS (BALB/c mice [4]): improves lung edema induced by LPS in a dose dependent fashion
- wet/dry ratio of the lung tissue (BALB/c mice [4]; vs LPS stimulated group): reduced
- activity of GSH (glutathione peroxidase) in lung [5]: increased in a dose dependent manner
- activity of SOD in lung [6]: increased in a dose dependent manner
- number of neutrophils / neutrophil infiltration in alveolar cavity (BALB/c mice [7]): reduces neutrophil infiltration in alveolar cavity caused by LPS in a dose dependent manner
- activity of CAT in lung (catalase (CAT)): increased in a dose dependent manner
